Assay results published in the NIST ThermoML archive (doi:10.1016/j.fluid.2010.10.028).
± gives the expanded uncertainty stated by the source.

Test: xn = mol fraction of the nth substance listed
Conditions: Liquid, Vibrating tube method

For `CC(C)=O` [acetone] + CCCCCCC, which mass density (387.31 K, 109790 kPa, x1 = 0.611) is on record?
Its mass density is 737.58 ± 1.7 kg/m3.

And the mass density (387.31 K, 114860 kPa, x1 = 0.611)?
The mass density was 740.58 ± 1.7 kg/m3.

And the mass density (387.31 K, 119850 kPa, x1 = 0.611)?
Its mass density is 743.43 ± 1.7 kg/m3.

What about the mass density (387.31 K, 124850 kPa, x1 = 0.611) of the same compound?
The mass density was 746.21 ± 1.7 kg/m3.

And the mass density (387.31 K, 129830 kPa, x1 = 0.611)?
The mass density was 748.89 ± 1.8 kg/m3.

What about the mass density (387.32 K, 1320 kPa, x1 = 0.801) of the same compound?
Its mass density is 639.55 ± 1.2 kg/m3.

And the mass density (387.32 K, 1540 kPa, x1 = 0.4)?
Its mass density is 654.4 ± 1.2 kg/m3.

What about the mass density (387.32 K, 1540 kPa, x1 = 0.8992) of the same compound?
The mass density was 654.4 ± 1.2 kg/m3.

And the mass density (387.32 K, 9840 kPa, x1 = 0.801)?
Its mass density is 658.47 ± 1.2 kg/m3.

And the mass density (387.32 K, 14970 kPa, x1 = 0.4)?
Its mass density is 681.93 ± 1.3 kg/m3.

And the mass density (387.32 K, 14970 kPa, x1 = 0.8992)?
Its mass density is 681.93 ± 1.2 kg/m3.

What about the mass density (387.32 K, 24870 kPa, x1 = 0.611) of the same compound?
Its mass density is 663.63 ± 1.3 kg/m3.

What about the mass density (387.32 K, 29860 kPa, x1 = 0.611) of the same compound?
Its mass density is 670.27 ± 1.3 kg/m3.

And the mass density (387.32 K, 34870 kPa, x1 = 0.611)?
Its mass density is 676.42 ± 1.3 kg/m3.

And the mass density (387.32 K, 39850 kPa, x1 = 0.801)?
Its mass density is 702.19 ± 1.3 kg/m3.

What about the mass density (387.32 K, 39920 kPa, x1 = 0.4) of the same compound?
Its mass density is 716.49 ± 1.3 kg/m3.

What about the mass density (387.32 K, 39920 kPa, x1 = 0.8992) of the same compound?
Its mass density is 716.49 ± 1.3 kg/m3.

What about the mass density (387.32 K, 44860 kPa, x1 = 0.611) of the same compound?
Its mass density is 687.46 ± 1.4 kg/m3.

What about the mass density (387.32 K, 49850 kPa, x1 = 0.801) of the same compound?
Its mass density is 712.89 ± 1.4 kg/m3.

What about the mass density (387.32 K, 49880 kPa, x1 = 0.4) of the same compound?
The mass density was 727.19 ± 1.4 kg/m3.

What about the mass density (387.32 K, 49880 kPa, x1 = 0.8992) of the same compound?
The mass density was 727.19 ± 1.4 kg/m3.

What about the mass density (387.32 K, 54850 kPa, x1 = 0.801) of the same compound?
The mass density was 717.78 ± 1.4 kg/m3.

And the mass density (387.32 K, 59840 kPa, x1 = 0.611)?
Its mass density is 701.71 ± 1.4 kg/m3.

What about the mass density (387.32 K, 59850 kPa, x1 = 0.4) of the same compound?
The mass density was 736.82 ± 1.4 kg/m3.

And the mass density (387.32 K, 59850 kPa, x1 = 0.801)?
Its mass density is 722.41 ± 1.4 kg/m3.

What about the mass density (387.32 K, 59850 kPa, x1 = 0.8992) of the same compound?
Its mass density is 736.82 ± 1.4 kg/m3.

And the mass density (387.32 K, 64820 kPa, x1 = 0.801)?
The mass density was 726.8 ± 1.4 kg/m3.

What about the mass density (387.32 K, 64830 kPa, x1 = 0.4) of the same compound?
Its mass density is 741.3 ± 1.4 kg/m3.

What about the mass density (387.32 K, 64830 kPa, x1 = 0.8992) of the same compound?
The mass density was 741.3 ± 1.4 kg/m3.

And the mass density (387.32 K, 69930 kPa, x1 = 0.611)?
The mass density was 710.16 ± 1.5 kg/m3.

What about the mass density (387.32 K, 74800 kPa, x1 = 0.4) of the same compound?
The mass density was 749.67 ± 1.5 kg/m3.

What about the mass density (387.32 K, 74800 kPa, x1 = 0.8992) of the same compound?
The mass density was 749.67 ± 1.4 kg/m3.

And the mass density (387.32 K, 74910 kPa, x1 = 0.611)?
The mass density was 714.05 ± 1.5 kg/m3.

And the mass density (387.32 K, 74910 kPa, x1 = 0.801)?
The mass density was 735.15 ± 1.5 kg/m3.

What about the mass density (387.32 K, 79790 kPa, x1 = 0.4) of the same compound?
The mass density was 753.62 ± 1.5 kg/m3.

And the mass density (387.32 K, 79790 kPa, x1 = 0.8992)?
The mass density was 753.62 ± 1.4 kg/m3.

What about the mass density (387.32 K, 79900 kPa, x1 = 0.611) of the same compound?
The mass density was 717.8 ± 1.5 kg/m3.

What about the mass density (387.32 K, 84760 kPa, x1 = 0.4) of the same compound?
Its mass density is 757.4 ± 1.5 kg/m3.

And the mass density (387.32 K, 84760 kPa, x1 = 0.8992)?
Its mass density is 757.4 ± 1.5 kg/m3.

And the mass density (387.32 K, 89750 kPa, x1 = 0.4)?
Its mass density is 761.05 ± 1.5 kg/m3.

And the mass density (387.32 K, 89750 kPa, x1 = 0.8992)?
Its mass density is 761.05 ± 1.5 kg/m3.

And the mass density (387.32 K, 89870 kPa, x1 = 0.611)?
The mass density was 724.87 ± 1.6 kg/m3.

What about the mass density (387.32 K, 94730 kPa, x1 = 0.4) of the same compound?
Its mass density is 764.59 ± 1.5 kg/m3.

What about the mass density (387.32 K, 94730 kPa, x1 = 0.8992) of the same compound?
Its mass density is 764.59 ± 1.5 kg/m3.

And the mass density (387.32 K, 94840 kPa, x1 = 0.801)?
Its mass density is 749.8 ± 1.5 kg/m3.

And the mass density (387.32 K, 94850 kPa, x1 = 0.611)?
Its mass density is 728.19 ± 1.6 kg/m3.

And the mass density (387.32 K, 99700 kPa, x1 = 0.4)?
Its mass density is 768.01 ± 1.5 kg/m3.

What about the mass density (387.32 K, 99700 kPa, x1 = 0.8992) of the same compound?
The mass density was 768.01 ± 1.5 kg/m3.

What about the mass density (387.32 K, 99840 kPa, x1 = 0.611) of the same compound?
Its mass density is 731.42 ± 1.6 kg/m3.

And the mass density (387.32 K, 104670 kPa, x1 = 0.4)?
Its mass density is 771.32 ± 1.6 kg/m3.

And the mass density (387.32 K, 104670 kPa, x1 = 0.8992)?
Its mass density is 771.32 ± 1.5 kg/m3.

And the mass density (387.32 K, 104810 kPa, x1 = 0.611)?
Its mass density is 734.54 ± 1.6 kg/m3.

And the mass density (387.32 K, 104810 kPa, x1 = 0.801)?
The mass density was 756.41 ± 1.6 kg/m3.

What about the mass density (387.32 K, 109640 kPa, x1 = 0.4) of the same compound?
Its mass density is 774.53 ± 1.6 kg/m3.

What about the mass density (387.32 K, 109640 kPa, x1 = 0.8992) of the same compound?
Its mass density is 774.53 ± 1.6 kg/m3.

And the mass density (387.32 K, 109780 kPa, x1 = 0.801)?
Its mass density is 759.56 ± 1.6 kg/m3.

What about the mass density (387.32 K, 114600 kPa, x1 = 0.4) of the same compound?
Its mass density is 777.64 ± 1.6 kg/m3.

And the mass density (387.32 K, 114600 kPa, x1 = 0.8992)?
Its mass density is 777.64 ± 1.6 kg/m3.

What about the mass density (387.32 K, 119580 kPa, x1 = 0.4) of the same compound?
The mass density was 780.68 ± 1.6 kg/m3.

And the mass density (387.32 K, 119580 kPa, x1 = 0.8992)?
Its mass density is 780.68 ± 1.6 kg/m3.

What about the mass density (387.32 K, 119830 kPa, x1 = 0.801) of the same compound?
Its mass density is 765.63 ± 1.6 kg/m3.

And the mass density (387.32 K, 124530 kPa, x1 = 0.4)?
Its mass density is 783.61 ± 1.6 kg/m3.

And the mass density (387.32 K, 124530 kPa, x1 = 0.8992)?
The mass density was 783.61 ± 1.6 kg/m3.

And the mass density (387.32 K, 129840 kPa, x1 = 0.4)?
The mass density was 786.68 ± 1.6 kg/m3.

And the mass density (387.32 K, 129840 kPa, x1 = 0.8992)?
The mass density was 786.68 ± 1.6 kg/m3.

What about the mass density (387.33 K, 1300 kPa, x1 = 0.7024) of the same compound?
Its mass density is 628.97 ± 1.2 kg/m3.

And the mass density (387.33 K, 4820 kPa, x1 = 0.7024)?
The mass density was 637.48 ± 1.2 kg/m3.

What about the mass density (387.33 K, 4860 kPa, x1 = 0.492) of the same compound?
Its mass density is 621.33 ± 1.2 kg/m3.

And the mass density (387.33 K, 4860 kPa, x1 = 0.801)?
Its mass density is 648.03 ± 1.2 kg/m3.

And the mass density (387.33 K, 5010 kPa, x1 = 0.4)?
The mass density was 662.6 ± 1.2 kg/m3.

What about the mass density (387.33 K, 5010 kPa, x1 = 0.8992) of the same compound?
The mass density was 662.6 ± 1.2 kg/m3.

What about the mass density (387.33 K, 9820 kPa, x1 = 0.7024) of the same compound?
The mass density was 647.9 ± 1.2 kg/m3.

And the mass density (387.33 K, 9850 kPa, x1 = 0.492)?
Its mass density is 631.47 ± 1.2 kg/m3.

And the mass density (387.33 K, 10000 kPa, x1 = 0.4)?
Its mass density is 672.89 ± 1.2 kg/m3.

What about the mass density (387.33 K, 10000 kPa, x1 = 0.8992) of the same compound?
The mass density was 672.89 ± 1.2 kg/m3.

What about the mass density (387.33 K, 14850 kPa, x1 = 0.492) of the same compound?
Its mass density is 640.29 ± 1.2 kg/m3.

What about the mass density (387.33 K, 14860 kPa, x1 = 0.801) of the same compound?
The mass density was 667.65 ± 1.2 kg/m3.

What about the mass density (387.33 K, 19810 kPa, x1 = 0.7024) of the same compound?
Its mass density is 665.07 ± 1.3 kg/m3.

And the mass density (387.33 K, 19860 kPa, x1 = 0.801)?
The mass density was 675.81 ± 1.3 kg/m3.

And the mass density (387.33 K, 19960 kPa, x1 = 0.4)?
Its mass density is 690.05 ± 1.3 kg/m3.

What about the mass density (387.33 K, 19960 kPa, x1 = 0.8992) of the same compound?
The mass density was 690.05 ± 1.3 kg/m3.

And the mass density (387.33 K, 24860 kPa, x1 = 0.801)?
Its mass density is 683.23 ± 1.3 kg/m3.

And the mass density (387.33 K, 24940 kPa, x1 = 0.4)?
Its mass density is 697.46 ± 1.3 kg/m3.

What about the mass density (387.33 K, 24940 kPa, x1 = 0.8992) of the same compound?
The mass density was 697.46 ± 1.3 kg/m3.

What about the mass density (387.33 K, 29820 kPa, x1 = 0.7024) of the same compound?
The mass density was 679.2 ± 1.3 kg/m3.

And the mass density (387.33 K, 29830 kPa, x1 = 0.801)?
The mass density was 690 ± 1.3 kg/m3.

What about the mass density (387.33 K, 29940 kPa, x1 = 0.4) of the same compound?
Its mass density is 704.27 ± 1.3 kg/m3.

And the mass density (387.33 K, 29940 kPa, x1 = 0.8992)?
The mass density was 704.27 ± 1.3 kg/m3.

And the mass density (387.33 K, 34860 kPa, x1 = 0.801)?
The mass density was 696.35 ± 1.3 kg/m3.

And the mass density (387.33 K, 34930 kPa, x1 = 0.4)?
The mass density was 710.58 ± 1.3 kg/m3.

What about the mass density (387.33 K, 34930 kPa, x1 = 0.8992) of the same compound?
Its mass density is 710.58 ± 1.3 kg/m3.
